{"source": "paper PMC3967229", "about": "(Marine Drugs, 2014)", "origin": "cited, not measured here", "key": {"[1]": {"details": "mouse in vivo model"}, "[2]": {"details": "protein-assisted mechanism"}, "[3]": {"details": "rabbit in vivo model"}, "MDA-MB-231 cells": {"tested_on": "MDA-MB-231 cells", "parameters": "method as in PMID 22543582", "details": "10 mg/kg/day, together with dexamethasone"}, "HCT116 tumor": {"tested_on": "HCT116 tumor", "details": "i.p."}, "[4]": {"details": "5 mg/kg/day"}, "[5]": {"experiment": "not given", "remark": "listed apart in the source"}, "[6]": {"experiment": "not given", "remark": "listed apart in the source"}, "[7]": {"parameters": "method as in earlier work"}}, "note": "Read-outs that look alike come from different tables or passages of the source.", "data": [{"compound": "CCCCCCCC(=O)SCC/C=C/[C@@H]1CC(=O)NCc2nc(cs2)C2=N[C@@](C)(CS2)C(=O)N[C@@H](C(C)C)C(=O)O1", "note": "[largazole]", "values": [{"measurement": "Cellular activity", "result": "low-nanomolar"}, {"measurement": "Bone-forming activity", "setting": "[1]", "result": "bone-forming activity"}, {"measurement": "Conversion to largazole thiol in mouse serum", "setting": "[2]", "result": "rapidly converted"}, {"measurement": "Bone-forming activity", "setting": "[3]", "result": "bone-forming activity"}, {"measurement": "Invasiveness of orthotopic MDA-MB-231 tumors", "setting": "MDA-MB-231 cells", "result": "reducing the invasiveness"}, {"measurement": "HCT116 tumor growth", "setting": "HCT116 tumor; colon tumor xenograft mouse model", "result": "retarding HCT116 tumor growth"}, {"measurement": "Acute toxicity", "setting": "HCT116 tumor; up to the highest dose tested (50 mg/kg), mouse", "result": "without acute toxicity"}, {"measurement": "Liver fibrosis", "setting": "[4]", "result": "decreased liver fibrosis"}]}, {"compound": "C/C=C1\\NC(=O)[C@H]2CSSCC/C=C/[C@H](CC(=O)N[C@H](C(C)C)C(=O)N2)OC(=O)[C@H](C(C)C)NC1=O", "note": "[romidepsin]", "values": [{"measurement": "Volume of distribution (Vdss)", "setting": "[5]", "result": 22.3, "unit": "L/kg"}]}, {"compound": "O=C(CCCCCCC(=O)Nc1ccccc1)NO", "note": "[vorinostat, Suberoylanilide hydroxamic acid]", "values": [{"measurement": "Cellular activity", "result": "micromolar"}, {"measurement": "Plasma protein binding, bound to human plasma", "setting": "[6]", "result": 71.3, "unit": "%"}, {"measurement": "Clearance", "setting": "[7]", "result": 55, "unit": "mL/min/kg"}, {"measurement": "Vdss", "setting": "[7]", "result": 0.6, "unit": "L/kg"}]}, {"compound": "largazole thiol", "values": [{"measurement": "Potency against HDAC isoforms", "setting": "HDACs 1, 2 and 3", "result": "subnanomolar"}]}]}
